Results taken from article PMC11013662, “New Thiosemicarbazide Derivatives with Multidirectional Biological Action” (Molecules, 2024).
Converted amounts (≈) assume the structure as drawn.

Columns and labels:
Gram-positive bacteria = assay: Broth microdilution MIC / MBC, summary over Gram-positive strains; format: cell-based
Description: (§1) The microdilution method was used to determine the MIC values of newly synthesized compounds. The antimicrobial activity of the thiosemicarbazides series was tested on ten reference bacterial strains purchased from the American Type Culture Collection (ATCC). Seven Gram-positive reference strains (S. aureus ATCC 29213, S. aureus ATCC 43300, S. aureus ATCC 6538, S. aureus ATCC 25923, S. epidermidis ATCC 12228, M. luteus ATCC 10240, and B. cereus ATCC 10876) and three Gram-negative reference bacteria (K. pneumoniae ATCC 13883, E. coli ATCC 25922, S. typhimurium ATCC 14028) were used. […]
(§2) A 96-well microtiter plate and microbroth two-fold dilution method was used to determine the minimum inhibitory concentration (MIC) according to the EUCAST (European Committee on Antimicrobial Susceptibility Testing) reference recommendation. […] After incubation, the growth of bacteria was monitored by a Biotek ELx800 (Biokom, Janki, Poland) spectrophotometer at 600 nm (OD600). […]
(§3) The in vitro antimicrobial activity of the tested compounds was determined by the MIC, which was defined as the lowest concentration of the compound tested at which no visible growth of the test bacteria was observed. […] MBC was determined after the broth dilution period of an MIC test has been completed. […] The MBC values were determined by observing the first clear area on the agar plate that has no observable bacterial growth.

[1] = test system: S. aureus reference strains; assay: Broth microdilution MIC / MBC, summary over S. aureus strains; format: cell-based, Staphylococcus aureus
Description: as §1, §2, §3

[2] = test system: Staphylococcus spp. strains; assay: Broth microdilution MIC / MBC, staphylococci; format: cell-based
Description: as §1, §2, §3

| MIC range (Gram-positive bacteria) | MIC range ([1]; S. aureus ATCC 43300 MRSA and all MSSA reference strains) | MBC/MIC ratio ([2]; against staphylococci, bacteriostatic) | MIC ([2]; all Staphylococcus spp. strains except MRSA ATCC 43300) | SMILES | MBC (Gram-positive bacteria) | MBC ([1]; Staphylococcus aureus, all tested S. aureus reference strains) |
| --- | --- | --- | --- | --- | --- | --- |
| 7.8 to 31.25 µg/mL | 15.63 to 31.25 µg/mL | – | – | O=C(NNC(=S)Nc1cccc(F)c1)c1cccc(C(F)(F)F)c1 [Compound 3e, 1-(3-Trifluoromethylbenzoyl)-4-(3-fluorophenyl)thiosemicarbazide] | > 1000 µg/mL | – |
| – | – | > 4 | 1.95 µg/mL (≈ 5.22 µM) | O=C(NNC(=S)Nc1cccc(Cl)c1)c1cccc(C(F)(F)F)c1 [Compound 3a, 4-(3-Chlorophenyl)-1-(3-trifluoromethylbenzoyl)thiosemicarbazide] | – | 1000 µg/mL (≈ 2680 µM) |
